From patent publication US10494404B2, “Quinolinium conjugates of cyclosporin” (priority 2014, dated 2019)
“Also recorded” adds a separate entry of the source.

Key:
[1] = test system: T cell proliferative response in the draining auricular lymph node; assay: Oxazolone contact hypersensitivity model, in vivo T cell proliferation; set-up: species or system mouse
Method: To identify non-immunosuppressive doses of potential neuroprotective compounds for use in models of MS (Al-Izki et al, 2014) we employed a model using epicutaneous application of the ear skin sensitizer, oxazolone, to induce a T cell proliferative response in the draining auricular lymph node peaking 3 days later (Baker et al, 2011).
The contact sensitiser 4-ethoxymethylene-2-phenyl-2-oxazolin-5-one (oxazolone, OX, Sigma) was dissolved (25 mg/ml) in 4:1 acetone:olive oil (AOO). Mice (n=3 per group) received epicutaneous application of either 25 μl of 2.5% OX or AOO on the dorsum of the ear on day 0 (O'Neill et al, 1992). The draining auricular lymph nodes were removed three days later and the induced proliferative response was assessed as previously described. Briefly, 5×10^5 cells per well were cultured in RPMI-1640 medium with glutamate (Gibco®, Invitrogen Ltd, Paisley UK), supplemented with 0.5 mM sodium, in round-bottomed 96 well plates overnight at 37° C. in a humidified atmosphere of 5% CO2. In the presence of 1 μCi^3H-thymidine (PerkinElmer, Mass., USA) per well. […] Results are expressed as mean±SEM thymidine incorporation counts per minute (CPM)

[2] = test system: experimental autoimmune encephalomyelitis (EAE); assay: Relapsing-progressive experimental autoimmune encephalomyelitis (EAE) in ABH mice; type: in vivo, mouse
Method: ABH mice were injected with 1 mg mouse spinal cord homogenate in Freund's adjuvant on days 0 and 7 post-induction to induce EAE and this was repeated on day 28 post-induction to induce a relapse.
Animals were monitored for the development of clinical disease and the results in FIG. 1 represent the mean daily clinical score after induction of relapse.
Mice were injected subcutaneously (s.c.) with 1 mg freeze-dried mouse spinal cord homogenate (SCH) in Freunds adjuvant on day zero and seven as described previously (Al-Izki et al, 2012a). After the initial paralytic disease and subsequent remission, a relapse was induced by a further injection of SCH in Freunds incomplete adjuvant on day 28 to induce a relapse 7 days later (Al-Izki et al, 2012a). Studies were randomised, blinded and powered as described previously (Al-Izki et al, 2012a). Neurological scores were graded as 0=normal; 1=limp tail, 2=impaired righting reflex, 3=hindlimb paresis, 4=complete hindlimb paralysis, and 5=moribund/death (Al-Izki et al, 2012a). Results are expressed as mean±SEM maximum or minimum neurological score and mean day of onset±SD. Differences between groups were assessed using Mann Whitney U statistics (Al-Izki et al, 2012a). Motor control and co-ordination was assessed on an accelerating (4-40 rpm, accelerating at 6 rpm/25 s) RotaRod (ENV-575M, Med Associates Inc, St. Albans, Vt., USA) as described previously (Al-Izki et al, 2012a). This was performed one day before induction of relapse and at the termination of the experiment on day 45. RotaRod assessment was performed blinded to treatment. Animals were randomised to vehicle or treatment based on their RotaRod scores. Results are expressed as mean±SEM time that animals maintained rotarod activity. Differences between groups were assessed using Students t test, incorporating a test for equality of variance and normality (Al-Izki et al, 2012a). At the end of the experiment the spinal cord was removed and an enzyme linked immunosorbent assay (ELISA) for heavy chain neurofilament on spinal cord was performed and total nerve content of each spinal cord was estimated following calibration against neurofilament protein standards as described previously (Jackson et al, 2005); (Al-Izki et al, 2012a).
Neurofilament level as a correlate of spinal cord axonal content was determined as followed. Spinal cords were collected from the spinal columns of untreated (n=11) and Compound 11 mg/kg treated (n=13) animals at the second remission phase of disease post relapse at day 45 post disease induction. Tissues snap frozen and stored at −80° C. prior to homogenisation. Tissues were homogenised in a glass homogeniser in 1 ml/100 mg of spinal cord tissue wet weight homogenisation buffer (0.2 mM PMSF, 1 mM EDTA, 1 mM EGTA, 4M Urea, 10 mM Tris-HCl Sigma UK, pH 7.2,) plus 1:100 HALT protease inhibitor cocktail (Thermo Fisher, UK) and further homogenised by sonication twice for 10 seconds (Cole-Parmer Instruments, USA). Samples were spun down at 13,000 rpm in a bench top centrifuge (Eppendorf, UK) and the supernatant was collected and stored at −80° C. prior to neurofilament determination. Samples were thawed on ice and an enzyme linked immunosorbent assay for heavy chain neurofilament was performed. Briefly, a 96 well plate was coated overnight at 4° C. with capture antibody (1:5000 SMI-35 anti-neurofilament H. Covance Inc. Cambridge Bioscience, Cambridge, UK) in coating buffer (0.15M Na2CO3, 0.35M NaHCO3, Sigma, UK, pH 9.6. Following one wash in wash buffer (150 mM NaCl, 10 mM Tris-HCl, 0.1% Tween 20, Sigma, UK pH 7.5), non-specific binding was blocked by incubation with 5% bovine serum albumin (Sigma, UK) in wash buffer for 1 hour at room temperature. Following a wash step, samples and standards (Porcine neurofilament heavy chain, Chemicon International, UK) were diluted in wash buffer with 1% bovine serum albumin and incubated on the plate for 1 hour at room temperature. […]

SMILES: CC[C@@H]1NC(=O)[C@H]([C@H](O)[C@H](C)C/C=C/CCC[n+]2cccc3ccccc32)N(C)C(=O)[C@H](C(C)C)N(C)C(=O)[C@H](CC(C)C)N(C)C(=O)[C@H](CC(C)C)N(C)C(=O)[C@@H](C)NC(=O)[C@H](C)NC(=O)[C@H](CC(C)C)N(C)C(=O)[C@H](C(C)C)NC(=O)[C@H](CC(C)C)N(C)C(=O)CN(C)C1=O [Compound 1, [Gly-(1S,2R,E)-8-quinolinium-1-hydroxy-2-methyloct-4-ene]^1 CsA]
- effect on T cell response ([1]; daily 0.1 mg/kg i.p.): had no effect
- effect on T cell response ([1]; daily 1 mg/kg i.p.): had no effect
- effect on T cell response ([1]; daily 10 mg/kg i.p.): inhibited the T cell response
- mean daily clinical score after induction of relapse ([2]; 1 mg/kg i.p. daily from day 33): inhibits the accumulation of neurological deficit; also recorded: has neuroprotective properties
- loss of axons within the spinal cord ([2]; 1 mg/kg i.p., vs vehicle): lost significantly (P<0.01) less nerves (FIG. 7B) and axons
- loss of motor co-ordination ([2]; 1 mg/kg i.p., vs vehicle): significantly (P<0.001) less loss of motor co-ordination
- loss of nerves within the spinal cord (neurofilament ELISA) ([2]; 1 mg/kg i.p., vs vehicle): lost significantly (P<0.01) less nerves
- rotarod activity (time on accelerating rotarod) ([2]; day 27, first remission, before treatment): 168.8 ± 21.8 s
- rotarod activity (time on accelerating rotarod) ([2]; second remission after relapse (day 45), 1 mg/kg i.p.): 135.0 ± 42.9 s
